# From patent publication US20190367516A1 (Bayer Pharma Aktiengesellschaft, priority 2015, published 2019)
# Target: T1, human M2 receptor (Homo sapiens, UniProt P08172)
# T1 sequence (P08172 1-466): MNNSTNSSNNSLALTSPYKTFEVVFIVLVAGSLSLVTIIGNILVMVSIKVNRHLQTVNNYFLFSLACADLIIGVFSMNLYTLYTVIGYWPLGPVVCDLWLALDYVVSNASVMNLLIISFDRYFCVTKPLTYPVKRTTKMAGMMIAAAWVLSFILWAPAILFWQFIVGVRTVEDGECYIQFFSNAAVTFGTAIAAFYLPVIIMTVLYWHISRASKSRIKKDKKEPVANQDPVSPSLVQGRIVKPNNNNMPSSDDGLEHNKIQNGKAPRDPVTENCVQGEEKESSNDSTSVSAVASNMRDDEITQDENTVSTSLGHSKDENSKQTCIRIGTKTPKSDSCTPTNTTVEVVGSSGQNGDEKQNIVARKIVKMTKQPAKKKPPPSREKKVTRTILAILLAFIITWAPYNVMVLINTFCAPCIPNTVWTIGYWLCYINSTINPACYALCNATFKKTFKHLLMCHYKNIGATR
# Conditions: M2-GIRK1/4 reporter cells; for EC50: Receptor activity EC50, allosteric potency at EC20 acetylcholine, in some cases mean of two or more determinations; for Emax: read-out: Efficiency, boosting of the acetylcholine effect at EC20 acetylcholine concentration
Compound,EC50 [nM],Emax [%]
"O=C(N[C@@H](C1CC1)C(F)(F)F)c1cn(-c2c(F)cc(F)cc2F)c2nc(N3CC[C@@H](O)C3=O)ccc2c1=O [Example 466, N-[(1 S)-1-Cyclopropyl-2,2,2-trifluoroethyl]-7-[(3R)-3-hydroxy-2-oxopyrrolidin-1-yl]-4-oxo-1-(2,4,6-trifluorophenyl)-1,4-dihydro-1,8-naphthyridine-3-carboxamide]",26,100
"O=C(N[C@@H](C1CC1)C(F)(F)F)c1cn(-c2c(F)cc(F)cc2F)c2nc(N3CC[C@H](O)C3=O)ccc2c1=O [Example 467, N-[(1 S)-1-Cyclopropyl-2,2,2-trifluoroethyl]-7-[(3S)-3-hydroxy-2-oxopyrrolidin-1-yl]-4-oxo-1-(2,4,6-trifluorophenyl)-1,4-dihydro-1,8-naphthyridine-3-carboxamide]",42,97.5
"O=C(N[C@@H](C1CC1)C(F)(F)F)c1cn(-c2c(F)cc(F)cc2F)c2nc(N3CCC(CO)C3=O)ccc2c1=O (some centres unmarked) [Example 468, N-[(1 S)-1-Cyclopropyl-2,2,2-trifluoroethyl]-7-[3-(hydroxymethyl)-2-oxopyrrolidin-1-yl]-4-oxo-1-(2,4,6-trifluorophenyl)-1,4-dihydro-1,8-naphthyridine-3-carboxamide]",23,98.5
"CC(C)(C)NC(=O)c1cn(-c2c(F)cc(F)cc2F)c2nc(N3C[C@@H](O)CC3=O)ccc2c1=O [Example 469, N-tert-Butyl-7-[(4S)-4-hydroxy-2-oxopyrrolidin-1-yl]-4-oxo-1-(2,4,6-trifluorophenyl)-1,4-dihydro-1,8-naphthyridine-3-carboxamide]",20,100
"C[C@@H](NC(=O)c1cn(-c2c(F)cc(F)cc2F)c2nc(N3C[C@@H](O)[C@H](O)C3)ccc2c1=O)C1CC1 [Example 470, N-[(1R)-1-Cyclopropylethyl]-7-[(3R,4R)-3,4-dihydroxypyrrolidin-1-yl]-4-oxo-1-(2,4,6-trifluorophenyl)-1,4-dihydro-1,8-naphthyridine-3-carboxamide]",104,98.5
"CC(C)[C@H](C)NC(=O)c1cn(-c2c(F)cc(F)cc2F)c2nc(N3C[C@@H](O)[C@H](O)C3)ccc2c1=O [Example 472, 7-[(3R,4R)-3,4-Dihydroxypyrrolidin-1-yl]-N-[(2S)-3-methylbutan-2-yl]-4-oxo-1-(2,4,6-trifluorophenyl)-1,4-dihydro-1,8-naphthyridine-3-carboxamide]",29,90
"CC(C)[C@@H](C)NC(=O)c1cn(-c2c(F)cc(F)cc2F)c2nc(N3C[C@@H](O)CC3=O)ccc2c1=O [Example 473, 7-[(4S)-4-Hydroxy-2-oxopyrrolidin-1-yl]-N-[(2R)-3-methylbutan-2-yl]-4-oxo-1-(2,4,6-trifluorophenyl)-1,4-dihydro-1,8-naphthyridine-3-carboxamide]",31,100
"C[C@H](NC(=O)c1cn(-c2c(F)cc(F)cc2F)c2nc(N3C[C@@H](O)[C@H](O)C3)ccc2c1=O)C1CC1 [Example 477, N-[(1 S)-1-Cyclopropylethyl]-7-[(3R,4R)-3,4-dihydroxypyrrolidin-1-yl]-4-oxo-1-(2,4,6-trifluorophenyl)-1,4-dihydro-1,8-naphthyridine-3-carboxamide]",73,89
"C[C@H](NC(=O)c1cn(-c2c(F)cc(F)cc2F)c2nc(N3C[C@@H](O)CC3=O)ccc2c1=O)C1CC1 [Example 478, N-[(1 S)-1-Cyclopropylethyl]-7-[(4S)-4-hydroxy-2-oxopyrrolidin-1-yl]-4-oxo-1-(2,4,6-trifluorophenyl)-1,4-dihydro-1,8-naphthyridine-3-carboxamide]",24,100
"CC(C)(C)NC(=O)c1cn(-c2c(F)cc(F)cc2F)c2nc(N3C[C@@H](O)[C@H](O)C3)ccc2c1=O [Example 479, N-tert-Butyl-7-[(3R,4R)-3,4-dihydroxypyrrolidin-1-yl]-4-oxo-1-(2,4,6-trifluorophenyl)-1,4-dihydro-1,8-naphthyridine-3-carboxamide]",38,100
"C[C@@H](NC(=O)c1cn(-c2c(F)cc(F)cc2F)c2nc(N3C[C@@H](O)CC3=O)ccc2c1=O)C1CC1 [Example 480, N-[(1R)-1-Cyclopropylethyl]-7-[(4S)-4-hydroxy-2-oxopyrrolidin-1-yl]-4-oxo-1-(2,4,6-trifluorophenyl)-1,4-dihydro-1,8-naphthyridine-3-carboxamide]",46,100
"CC(C)(NC(=O)c1cn(-c2c(F)cc(F)cc2F)c2nc(N3C[C@@H](O)CC3=O)ccc2c1=O)C1CC1 [Example 481, N-(2-Cyclopropylpropan-2-yl)-7-[(4S)-4-hydroxy-2-oxopyrrolidin-1-yl]-4-oxo-1-(2,4,6-trifluorophenyl)-1,4-dihydro-1,8-naphthyridine-3-carboxamide]",10,100
"CC(C)[C@@H](C)NC(=O)c1cn(-c2c(F)cc(F)cc2F)c2nc(N3C[C@@H](O)[C@H](O)C3)ccc2c1=O [Example 483, 7-[(3R,4R)-3,4-Dihydroxypyrrolidin-1-yl]-N-[(2R)-3-methylbutan-2-yl]-4-oxo-1-(2,4,6-trifluorophenyl)-1,4-dihydro-1,8-naphthyridine-3-carboxamide]",54,92.5
CN1CCN(c2ccc3c(=O)c(C(=O)N[C@@H](C4CC4)C(F)(F)F)cn(-c4c(F)cc(F)cc4F)c3n2)CC1 [Example 490],103,91.5
CN(C[C@H](O)CO)c1ccc2c(=O)c(C(=O)N[C@@H](C3CC3)C(F)(F)F)cn(-c3c(F)cc(F)cc3F)c2n1 [Example 491],106,85.5
O=C(N[C@@H](C1CC1)C(F)(F)F)c1cn(-c2c(F)cc(F)cc2F)c2nc(N3CC4(COC4)C3)ccc2c1=O [Example 492],44,97.5
CC[C@H](NC(=O)c1cn(-c2c(F)cc(F)cc2F)c2nc(N(C)C[C@@H](C)O)ccc2c1=O)C(F)(F)F [Example 495],31,99.5
CC[C@H](NC(=O)c1cn(-c2c(F)cc(F)cc2F)c2nc(N3CCN(C)CC3)ccc2c1=O)C(F)(F)F [Example 496],67,89
CC[C@H](NC(=O)c1cn(-c2c(F)cc(F)cc2F)c2nc(N(C)C[C@H](C)O)ccc2c1=O)C(F)(F)F [Example 497],29,92
CC[C@H](NC(=O)c1cn(-c2c(F)cc(F)cc2F)c2nc(N3CC4(COC4)C3)ccc2c1=O)C(F)(F)F [Example 498],60,83.5
CC[C@H](NC(=O)c1cn(-c2c(F)cc(F)cc2F)c2nc(NC(C)(C)C)ccc2c1=O)C(F)(F)F [Example 499],63,96
CC[C@H](NC(=O)c1cn(-c2c(F)cc(F)cc2F)c2nc(N3CCC(CO)(CO)CC3)ccc2c1=O)C(F)(F)F [Example 500],76,100
CC[C@H](NC(=O)c1cn(-c2c(F)cc(F)cc2F)c2nc(N3CC(F)C3)ccc2c1=O)C(F)(F)F [Example 501],58,98
"O=C(N[C@@H](C1CC1)C(F)(F)F)c1cn(-c2c(F)cc(F)cc2F)c2nc(N3CC(CO)(CO)C3)ccc2c1=O [Example 502, 7-[3,3-Bis(hydroxymethyl)azetidin-1-yl]-N-[(1S)-1-cyclopropyl-2,2,2-trifluoroethyl]-4-oxo-1-(2,4,6-trifluorophenyl)-1,4-dihydro-1,8-naphthyridine-3-carboxamide]",30,91
"CC[C@H](NC(=O)c1cn(-c2c(F)cc(F)cc2F)c2nc(N3C[C@@H](NC(C)=O)CC3=O)ccc2c1=O)C(F)(F)F [Example 517, 7-[(4S)-4-Acetamido-2-oxopyrrolidin-1-yl]-4-oxo-N-[(2S)-1,1,1-trifluorobutan-2-yl]-1-(2,4,6-trifluorophenyl)-1,4-dihydro-1,8-naphthyridine-3-carboxamide]",85,88.5
"CC[C@H](NC(=O)c1cn(-c2c(F)cc(F)cc2F)c2nc(N3CC(CNC(C)=O)CC3=O)ccc2c1=O)C(F)(F)F (stereo partly drawn) [Example 518, 7-[4-(Acetamidomethyl)-2-oxopyrrolidin-1-yl]-4-oxo-N-[(2S)-1,1,1-trifluorobutan-2-yl]-1-(2,4,6-trifluorophenyl)-1,4-dihydro-1,8-naphthyridine-3-carboxamide]",470,99.5
"CC(C)C[C@H](NC(=O)c1cn(-c2c(F)cc(F)cc2F)c2nc(N3C[C@@H](O)CC3=O)ccc2c1=O)C(F)(F)F [Example 525, 7-[(4S)-4-Hydroxy-2-oxopyrrolidin-1-yl]-oxo-N-[(2S)-1,1,1-trifluoro-4-methylpentan-2-yl]-1-(2,4,6-trifluorophenyl)-1,4-dihydro-1,8-naphthyridine-3-carboxamide]",5,100
"CC(C)C[C@@H](NC(=O)c1cn(-c2c(F)cc(F)cc2F)c2nc(N3C[C@@H](O)[C@H](O)C3)ccc2c1=O)C(F)(F)F [Example 544, 7-[(3R,4R)-3,4-Dihydroxypyrrolidin-1-yl]-4-oxo-N-[(2R)-1,1,1-trifluoro-4-methylpentan-2-yl]-1-(2,4,6-trifluorophenyl)-1,4-dihydro-1,8-naphthyridine-3-carboxamide]",8,98
